Test results published in PMC5951806, “Rapid labelling and covalent inhibition of intracellular native proteins using ligand-directed N-acyl-N-alkyl sulfonamide” (Nature Communications, 2018).

Columns and labels:
[1] = tested on: endogenous Hsp90; assay: Chemical labelling of endogenous Hsp90 in SKBR3 cells (in-gel fluorescence); type: cell-based, human; settings: 3 h
[2] = tested on: immunoglobulin gamma-1 heavy chain; assay: TMT LC-MSMS of 11-labelled proteins; type: cell-based, Homo sapiens
Excerpt: (§1) Supplement 41467_2018_4343_MOESM4_ESM.xlsx, sheet "Exp2" | column: Abundance Ratio: (11) / (11 with PU-H71); Abundance Ratio: (11) / (DMSO); Abundances (Grouped): 11; Abundances (Grouped): 11 with PU-H71

[3] = biological target: Isoform 2 of Glucose-6-phosphate isomerase (GPI) (Homo sapiens, UniProt P06744); assay: TMT LC-MSMS of 11-labelled proteins; type: cell-based
Excerpt: as §1

[4] = biological target: Alpha-actinin-4 (ACTN4) (Homo sapiens, UniProt O43707); assay: TMT LC-MSMS of 11-labelled proteins; type: cell-based
Excerpt: as §1

[5] = biological target: protein MAL2 (MAL2) (Homo sapiens, UniProt Q969L2); assay: TMT LC-MSMS of 11-labelled proteins; type: cell-based
Excerpt: as §1

[6] = biological target: Dolichyl-diphosphooligosaccharide--protein glycosyltransferase 48 kDa subunit (DDOST) (Homo sapiens, UniProt P39656); assay: TMT LC-MSMS of 11-labelled proteins; type: cell-based
Excerpt: as §1

[7] = biological target: T1, Monocarboxylate transporter 4 (SLC16A3) (Homo sapiens, UniProt O15427); assay: TMT LC-MSMS of 11-labelled proteins; type: cell-based
T1 sequence (O15427 1-465): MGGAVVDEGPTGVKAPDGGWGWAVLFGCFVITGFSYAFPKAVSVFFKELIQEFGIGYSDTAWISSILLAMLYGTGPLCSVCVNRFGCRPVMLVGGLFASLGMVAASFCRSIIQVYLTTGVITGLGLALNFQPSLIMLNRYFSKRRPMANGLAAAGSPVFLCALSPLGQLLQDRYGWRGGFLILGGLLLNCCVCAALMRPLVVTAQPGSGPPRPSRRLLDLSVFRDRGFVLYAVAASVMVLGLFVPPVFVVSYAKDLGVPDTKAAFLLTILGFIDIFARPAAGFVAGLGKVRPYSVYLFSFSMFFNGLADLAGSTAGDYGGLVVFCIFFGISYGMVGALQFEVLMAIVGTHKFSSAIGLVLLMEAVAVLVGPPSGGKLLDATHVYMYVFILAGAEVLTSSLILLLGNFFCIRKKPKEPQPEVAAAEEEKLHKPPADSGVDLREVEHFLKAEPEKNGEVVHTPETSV
Excerpt: as §1

[8] = biological target: T2, Phosphate carrier protein, mitochondrial (SLC25A3) (Homo sapiens, UniProt Q00325); assay: TMT LC-MSMS of 11-labelled proteins; type: cell-based
T2 sequence (Q00325 50-362): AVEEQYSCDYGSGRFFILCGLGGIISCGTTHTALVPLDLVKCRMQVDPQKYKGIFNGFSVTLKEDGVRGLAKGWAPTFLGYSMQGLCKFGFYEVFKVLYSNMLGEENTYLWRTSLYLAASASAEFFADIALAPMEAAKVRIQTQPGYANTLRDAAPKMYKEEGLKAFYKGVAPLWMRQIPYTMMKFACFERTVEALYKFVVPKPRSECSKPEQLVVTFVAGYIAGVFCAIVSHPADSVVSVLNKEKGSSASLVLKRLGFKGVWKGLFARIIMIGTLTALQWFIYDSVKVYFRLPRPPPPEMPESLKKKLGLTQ
Excerpt: as §1

[9] = biological target: Hemoglobin subunit alpha (HBA2; HBA1) (Homo sapiens, UniProt P69905); assay: TMT LC-MSMS of 11-labelled proteins; type: cell-based
Excerpt: as §1

[10] = biological target: Dolichyl-diphosphooligosaccharide--protein glycosyltransferase subunit 1 (RPN1) (Homo sapiens, UniProt P04843); assay: TMT LC-MSMS of 11-labelled proteins; type: cell-based
Excerpt: as §1

Hemoglobin subunit alpha (HBA2; HBA1), sequence (P69905 2-142 limits assumed): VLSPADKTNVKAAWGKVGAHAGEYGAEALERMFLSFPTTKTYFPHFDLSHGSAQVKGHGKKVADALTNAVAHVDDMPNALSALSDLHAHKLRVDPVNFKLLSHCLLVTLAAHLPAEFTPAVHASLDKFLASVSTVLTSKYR
Dolichyl-diphosphooligosaccharide--protein glycosyltransferase 48 kDa subunit (DDOST), sequence (P39656 43-456): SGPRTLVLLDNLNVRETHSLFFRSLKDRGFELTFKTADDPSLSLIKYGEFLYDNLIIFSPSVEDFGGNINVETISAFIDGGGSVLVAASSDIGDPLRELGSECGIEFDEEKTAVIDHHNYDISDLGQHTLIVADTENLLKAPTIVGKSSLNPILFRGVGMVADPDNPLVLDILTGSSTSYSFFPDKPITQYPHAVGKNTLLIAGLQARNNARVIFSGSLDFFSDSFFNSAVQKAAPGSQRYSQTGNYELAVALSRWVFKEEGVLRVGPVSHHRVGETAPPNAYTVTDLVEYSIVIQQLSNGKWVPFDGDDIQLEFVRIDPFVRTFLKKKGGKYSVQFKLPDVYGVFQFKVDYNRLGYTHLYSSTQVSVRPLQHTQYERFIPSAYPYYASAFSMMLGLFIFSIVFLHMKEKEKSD
Dolichyl-diphosphooligosaccharide--protein glycosyltransferase 48 kDa subunit (DDOST), sequence (P04843 24-607 partner): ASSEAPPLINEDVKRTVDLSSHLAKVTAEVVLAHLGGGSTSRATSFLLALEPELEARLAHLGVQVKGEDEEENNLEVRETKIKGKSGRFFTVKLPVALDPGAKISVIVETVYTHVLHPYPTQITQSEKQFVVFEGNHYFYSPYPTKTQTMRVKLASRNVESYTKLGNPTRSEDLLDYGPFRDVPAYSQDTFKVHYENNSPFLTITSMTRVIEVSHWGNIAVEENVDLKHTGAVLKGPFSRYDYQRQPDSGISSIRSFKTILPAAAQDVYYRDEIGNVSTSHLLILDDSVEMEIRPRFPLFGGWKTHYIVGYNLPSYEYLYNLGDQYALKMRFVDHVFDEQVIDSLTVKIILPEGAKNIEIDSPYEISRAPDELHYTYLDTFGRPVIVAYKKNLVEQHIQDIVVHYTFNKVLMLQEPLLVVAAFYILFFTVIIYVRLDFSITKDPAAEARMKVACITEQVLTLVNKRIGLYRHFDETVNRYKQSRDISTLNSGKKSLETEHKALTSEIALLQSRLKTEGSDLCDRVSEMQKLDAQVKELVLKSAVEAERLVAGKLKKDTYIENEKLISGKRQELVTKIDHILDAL
Dolichyl-diphosphooligosaccharide--protein glycosyltransferase 48 kDa subunit (DDOST), sequence (P04844 23-631 partner): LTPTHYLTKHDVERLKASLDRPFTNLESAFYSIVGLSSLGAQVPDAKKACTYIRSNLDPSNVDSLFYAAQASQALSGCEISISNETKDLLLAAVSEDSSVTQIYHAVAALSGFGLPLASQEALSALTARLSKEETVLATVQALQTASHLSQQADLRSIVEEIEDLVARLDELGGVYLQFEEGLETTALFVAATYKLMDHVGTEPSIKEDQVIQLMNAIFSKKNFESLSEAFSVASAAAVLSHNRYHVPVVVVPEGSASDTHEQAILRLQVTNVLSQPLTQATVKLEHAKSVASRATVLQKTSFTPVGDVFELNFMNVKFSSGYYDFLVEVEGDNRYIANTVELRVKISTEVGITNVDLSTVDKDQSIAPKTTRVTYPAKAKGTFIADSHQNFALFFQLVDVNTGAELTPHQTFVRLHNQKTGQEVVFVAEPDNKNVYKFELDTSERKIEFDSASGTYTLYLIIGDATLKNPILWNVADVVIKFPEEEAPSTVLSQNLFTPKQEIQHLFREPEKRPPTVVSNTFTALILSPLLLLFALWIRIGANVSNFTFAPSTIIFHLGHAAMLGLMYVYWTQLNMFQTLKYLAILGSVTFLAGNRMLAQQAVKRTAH
Dolichyl-diphosphooligosaccharide--protein glycosyltransferase 48 kDa subunit (DDOST), sequence (P61803 whole entry partner): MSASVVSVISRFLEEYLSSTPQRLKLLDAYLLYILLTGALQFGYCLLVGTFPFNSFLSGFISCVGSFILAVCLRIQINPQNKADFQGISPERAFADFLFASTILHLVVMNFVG
Dolichyl-diphosphooligosaccharide--protein glycosyltransferase 48 kDa subunit (DDOST), sequence (P61165 whole entry partner): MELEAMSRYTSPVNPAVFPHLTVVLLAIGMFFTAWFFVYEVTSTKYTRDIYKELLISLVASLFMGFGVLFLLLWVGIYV
Dolichyl-diphosphooligosaccharide--protein glycosyltransferase 48 kDa subunit (DDOST), sequence (P0C6T2 whole entry partner): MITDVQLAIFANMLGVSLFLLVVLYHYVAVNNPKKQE
Dolichyl-diphosphooligosaccharide--protein glycosyltransferase subunit 1 (RPN1), sequence (P04843 24-607): as the sequence (P04843 24-607 partner) above
Dolichyl-diphosphooligosaccharide--protein glycosyltransferase subunit 1 (RPN1), sequence (P39656 43-456 partner): as the sequence (P39656 43-456) above
Dolichyl-diphosphooligosaccharide--protein glycosyltransferase subunit 1 (RPN1), sequence (P04844 23-631 partner): as the sequence (P04844 23-631 partner) above
Dolichyl-diphosphooligosaccharide--protein glycosyltransferase subunit 1 (RPN1), sequence (P61803 whole entry partner): as the sequence (P61803 whole entry partner) above
Dolichyl-diphosphooligosaccharide--protein glycosyltransferase subunit 1 (RPN1), sequence (P61165 whole entry partner): as the sequence (P61165 whole entry partner) above
Dolichyl-diphosphooligosaccharide--protein glycosyltransferase subunit 1 (RPN1), sequence (P0C6T2 whole entry partner): as the sequence (P0C6T2 whole entry partner) above
protein MAL2 (MAL2), sequence (Q969L2 whole entry): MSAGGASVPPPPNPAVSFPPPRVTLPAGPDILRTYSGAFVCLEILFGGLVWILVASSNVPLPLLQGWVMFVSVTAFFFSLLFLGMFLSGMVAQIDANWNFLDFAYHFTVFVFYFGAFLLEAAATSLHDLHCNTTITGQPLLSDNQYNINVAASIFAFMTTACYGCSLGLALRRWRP
Alpha-actinin-4 (ACTN4), sequence (O43707 whole entry): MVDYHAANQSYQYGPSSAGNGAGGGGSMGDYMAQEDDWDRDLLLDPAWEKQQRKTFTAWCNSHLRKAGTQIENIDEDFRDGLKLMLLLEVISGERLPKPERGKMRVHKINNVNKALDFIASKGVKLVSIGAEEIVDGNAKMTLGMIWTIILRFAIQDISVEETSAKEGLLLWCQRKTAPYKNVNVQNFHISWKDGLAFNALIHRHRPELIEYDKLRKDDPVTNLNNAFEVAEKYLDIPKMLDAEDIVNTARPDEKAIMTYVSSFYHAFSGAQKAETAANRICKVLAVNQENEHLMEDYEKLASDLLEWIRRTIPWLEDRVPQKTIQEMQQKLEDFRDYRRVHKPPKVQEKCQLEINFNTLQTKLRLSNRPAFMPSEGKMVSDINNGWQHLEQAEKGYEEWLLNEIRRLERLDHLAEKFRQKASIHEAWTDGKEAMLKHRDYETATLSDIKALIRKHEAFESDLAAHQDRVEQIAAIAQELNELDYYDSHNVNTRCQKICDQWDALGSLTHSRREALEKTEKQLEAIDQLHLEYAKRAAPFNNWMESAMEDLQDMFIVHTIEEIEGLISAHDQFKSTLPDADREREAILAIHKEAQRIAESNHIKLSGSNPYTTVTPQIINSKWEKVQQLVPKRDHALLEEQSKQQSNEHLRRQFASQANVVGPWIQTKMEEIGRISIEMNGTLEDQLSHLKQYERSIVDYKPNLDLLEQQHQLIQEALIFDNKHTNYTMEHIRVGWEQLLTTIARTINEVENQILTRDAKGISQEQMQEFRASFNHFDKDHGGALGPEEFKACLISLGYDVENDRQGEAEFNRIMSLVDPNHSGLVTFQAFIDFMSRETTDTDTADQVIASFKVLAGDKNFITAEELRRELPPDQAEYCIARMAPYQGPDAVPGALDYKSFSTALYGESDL

CC(=O)Oc1ccc2c(c1)Oc1cc(OC(C)=O)ccc1C21OC(=O)c2cc(C(=O)NCCOCCOCCNC(=O)CCCC(=O)N(CC#N)S(=O)(=O)c3ccc(C(=O)NCCCn4c(Sc5cc6c(cc5I)OCO6)nc5c(N)ncnc54)cc3)ccc21 [compound 11]
unspecific reaction at high concentrations ([1]; 1–10 µM, 37 °C): No increase in unspecific
endogenous Hsp90 labelling ([1]; up to ~10 µM): labelled endogenous Hsp90 (both α and β isoforms)
Abundance Ratio: (11) / (11 with PU-H71) ([2]; sheet Exp2): 0.821
Abundance Ratio: (11) / (DMSO) ([2]; sheet Exp2): 0.807
Abundances (Grouped): 11 ([2]; sheet Exp2): 7483.9
Abundances (Grouped): 11 with PU-H71 ([2]; sheet Exp2, with PU-H71): 9110.6
Abundance Ratio: (11) / (11 with PU-H71) ([3]; sheet Exp2): 0.768
Abundance Ratio: (11) / (DMSO) ([3]; sheet Exp2): 2.545
Abundances (Grouped): 11 ([3]; sheet Exp2): 34.1
Abundances (Grouped): 11 with PU-H71 ([3]; sheet Exp2, with PU-H71): 44.4
Abundance Ratio: (11) / (11 with PU-H71) ([4]; sheet Exp2): 0.876
Abundance Ratio: (11) / (DMSO) ([4]; sheet Exp2): 1.667
Abundances (Grouped): 11 ([4]; sheet Exp2): 24
Abundances (Grouped): 11 with PU-H71 ([4]; sheet Exp2, with PU-H71): 27.4
Abundance Ratio: (11) / (11 with PU-H71) ([5]; sheet Exp2): 0.886
Abundance Ratio: (11) / (DMSO) ([5]; sheet Exp2): 3.449
Abundances (Grouped): 11 ([5]; sheet Exp2): 114.5
Abundances (Grouped): 11 with PU-H71 ([5]; sheet Exp2, with PU-H71): 129.3
Abundance Ratio: (11) / (11 with PU-H71) ([6]; sheet Exp2): 0.942
Abundance Ratio: (11) / (DMSO) ([6]; sheet Exp2): 2.044
Abundances (Grouped): 11 ([6]; sheet Exp2): 37.4
Abundances (Grouped): 11 with PU-H71 ([6]; sheet Exp2, with PU-H71): 39.7
Abundance Ratio: (11) / (11 with PU-H71) ([7]; sheet Exp2): 0.892
Abundance Ratio: (11) / (DMSO) ([7]; sheet Exp2): 8.305
Abundances (Grouped): 11 ([7]; sheet Exp2): 225.9
Abundances (Grouped): 11 with PU-H71 ([7]; sheet Exp2, with PU-H71): 253.2
Abundance Ratio: (11) / (11 with PU-H71) ([8]; sheet Exp2): 0.7
Abundance Ratio: (11) / (DMSO) ([8]; sheet Exp2): 2.264
Abundances (Grouped): 11 ([8]; sheet Exp2): 124.5
Abundances (Grouped): 11 with PU-H71 ([8]; sheet Exp2, with PU-H71): 177.9
Abundance Ratio: (11) / (11 with PU-H71) ([9]; sheet Exp2): 0.752
Abundance Ratio: (11) / (DMSO) ([9]; sheet Exp2): 2.578
Abundances (Grouped): 11 ([9]; sheet Exp2): 76.3
Abundances (Grouped): 11 with PU-H71 ([9]; sheet Exp2, with PU-H71): 101.4
Abundance Ratio: (11) / (11 with PU-H71) ([10]; sheet Exp2): 0.909
Abundance Ratio: (11) / (DMSO) ([10]; sheet Exp2): 2.785
Abundances (Grouped): 11 ([10]; sheet Exp2): 47.9
Abundances (Grouped): 11 with PU-H71 ([10]; sheet Exp2, with PU-H71): 52.7
